In patent publication US9290468B2, “Benzoheterocyclic compounds and use thereof” (SHANGHAI KECHOW PHARMA, INC., priority 2012, dated 2016):

Key:
HT29 cells = assay: Cell growth inhibition assay (MTT), HT29 cells; format: cell-based; settings: Homo sapiens, HT-29, 72 h
Protocol: (§1) When the HT29 cells reach their exponential phase of growth, 4×10^3 cells/well were plated into 96-well plates, the edge of plates were filled with sterility PBS, at the same time, filled three holds only with medium as blank group. • 2. The plates were cultured in a humidified 5% CO2 incubator at 37° C. for 24 h, and allowed to proliferate for reaching their exponential phase of growth. • 3. Samples were dissolved in DMSO (dimethyl sulfoxide), the concentration of Samples is 10 mmol/L, 1 mmol/L, 100 μmol/L, 10 μmol/L, 1 μmol/L, 0.1 μmol/L, and further diluted with cell culture medium. The final does concentration were 10 μmol/L, 1 μmol/L, 100 nmol/L, 10 nmol/L, 1 nmol/L, 0.1 nmol/L, 0 nmol/L (the control group). The final DMSO concentration used was 1‰ of total volume of medium in all treatments, including the control group. • Blank: medium • Control: the same dose of DMSO with experiment. Group, the DMSO was diluted with cell perfect culture medium. • Experiment: the cells were treated with the concentration of 10 μmol/L, 1 μmol/L, 100 nmol/L, 10 nmol/L, 1 nmol/L, 0.1 nmol/L. • 4. The plates were cultured in a humidified 5% CO2 incubator at 37° C. for 72 h. 20 μL of 3-(4,5-dimethylthiazol-2-yl)-2,5-diphenyltetrazolium bromide (MTT) reagent (5 mg/mL) in phosphate buffered serum (PBS) was added to each well. • 5. The plates were cultured in a humidified 5% CO2 incubator at 37° C. for 4 h. Subsequently, the solution was aspirated and 150 uL dimethyl sulfoxide was added to release the formed formazan crystals from the living cells mitochondria into the solution. • 6. After moderated shaking for 3 min, absorbance was measured at 490 nm using microplate reader. Methods 2 (A375) • 1. When the A375 cells reach their exponential phase of growth, 5×10^3 cells/well were plated into 96-well plates, the edge of plates were filled with sterility PBS, at the same time, filled three holds only with medium as blank group. • 2. The plates were cultured in a humidified 5% CO2 incubator at 37° C. for 24 h. Allowed to proliferate for reaching their exponential phase of growth. • 3. Samples were dissolved in DMSO (Dimethyl Sulfoxide), the concentration of Samples is 10 mmol/L, 1 mmol/L, 100 μmol/L, 10 μmol/L, 1 μmol/L, 0.1 μmol/L, and further diluted with cell culture medium. The final does concentration were 10 μmol/L, 1 μmol/L, 100 nmol/L, 10 nmol/L, 1 nmol/L, 0.1 nmol/L, 0 nmol/L (the control group). The final DMSO concentration used was 1‰ of total volume of medium in all treatments, including the control group. • Blank: medium • Control: the same dose of DMSO with experiment group, the DMSO was diluted with cell perfect culture medium • Experiment: the cells were treated with the concentration of 10 μmol/L, 1 μmol/L, 100 nmol/L, 10 nmol/L, 1 nmol/L, 0.1 nmol/L • 4. The plates were cultured in a humidified 5% CO2 incubator at 37° C. for 72 h. 20 μL of 3-(4,5-dimethylthiazol-2-yl)-2,5-diphenyltetrazolium bromide (MTT) reagent (5 mg/mL) in phosphate buffered serum (PBS) was added to each well. • 5. The plates were cultured in a humidified 5% CO2 incubator at 37° C. for 4 h. Subsequently, the solution was aspirated and 150 uL dimethyl sulfoxide was added to release the formed formazan crystals from the living cells mitochondria into the solution. • 6. After moderated shaking for 3 min, absorbance was measured at 490 nm using microplate reader.

A375 cells = assay: Cell growth inhibition assay (MTT), A375 cells; format: cell-based; settings: Homo sapiens, A-375, 72 h
Protocol: as §1

TNF-α = assay: Inhibition of TNF-α expression, LPS-stimulated spleen cells, ELISA; settings: Mus musculus, 24 h, read-out: Inhibition of TNF-α expression
Protocol: Take spleens of BALB/c gene reported mice, cultured in RPMI1640 medium (HyClone). Spleen was ground into single cell suspension, added red blood cell lysis buffer (sigma) to suspension, for cracking the red blood cells • 2. […] Dissolved compounds with DMSO and diluted with RPMI1640 medium containing 10% serum, diluted to a final concentration of 200 nM. • 4. Cells were added to 96 well plates, every hole was 100 μL. […] Each compound and control is three-hole wells. • 5. Cultured at 37° C. for 24 h. • 6. […] Using ELISA (enzyme-linked immunosorbent assay) technique for the determination of the amount of TNF-α in the 24 hours.
(§2) Control was DMSO and its concentration was same as the final concentration of test compounds.

Interleukin-4 (IL-4) = assay: Inhibition of Interleukin-4 (IL-4), GFP+ of CD4+ spleen cells by flow cytometry; settings: Mus musculus, 48 h, read-out: IL-4 inhibition
Protocol: Take spleens of BALB/c gene reported mice, culture in RPMI1640 medium (HyClone). • 2. Spleen will be ground into single cell suspension, add red blood cell lysis buffer (sigma) to suspension, for cracking the red blood cells. • 3. […] Dissolved compounds with DMSO and diluted with RPMI1640 medium containing 10% serum, diluted to a final concentration of 200 nM. • 5. […] After mixing, cells were added to 96 well plates, every hole is 100 μL. […] Each compound and control is three-hole wells, cultured at 37° C. for 48 h. • 6. After 48 h, the plates removed from the incubator and each well was collected in the flow tube (BD). • 7. Added cells to ice pre-cooling of PBS (phosphate buffer solution) solution to wash, and in 100 μL of PBS, join the fluorescent antibody CD4 0.5 μL, put in ice 15 min avoid light. • 8. After dyeing wash antibodies with the ice pre-cooling PBS solution. And prepare for flow cytometric detection. • 9. Using flow cytometry (BD FACS calibur) select the CD4+ cell populations, and detect GFP+ cells accounted for the percentage of CD4+ cells, to determine the impact of compounds on IL-4. • 10.
as §2

[1] = tested on: HT29 human colon cancer cells xenograft; assay: In vivo anti-tumor efficacy in HT29 tumor xenograft model; parameters: species or system BALB/c nude mice; settings: 20 mg/kg, oral gavage once daily, after 16 days of treatment, HT29 xenograft in nude mice
Protocol: Female BALB/c nude mice of 5-6 week old were used for all the in vivo efficacy studies. Mice were injected with HT29 human colon cancer cells at 5×10^6 cells per 100 μL SFM into right flank. Tumor volumes were monitored by caliper measurement using the formula: tumor volume (mm^3)=(w^2×l)/2, where w=width and c=length in mm of the tumor. When the tumor volumes reached 150˜300 mm^3, mice were randomized to treatment groups (5˜10 mice per group) to receive compounds (20 mg/kg doses) or vehicle by oral gavage once daily for 16 days. The tumor volumes and body weight were measured every 2-3 days for data analysis. Tumor growth inhibition (TGI) and body weight changes were calculated compared to the vehicle treated groups.

COLO 205 tumor xenograft = assay: In vivo anti-tumor efficacy in COLO205 tumor xenograft model
[2] = 10 mg/kg QD by gavage x 18 days

SMILES | IC50 (HT29 cells) [nM] | IC50 (A375 cells) [nM] | further results
O=C(NOCC(O)CO)c1cc2scnc2c(F)c1Nc1ccc(Br)cc1Cl (centres unmarked) [Compound 12, N-(2,3-dihydroxypropoxy)-4-fluoro-5-((4-bromo-2-chlorophenyl)amino)benzo[d]thiazole-6-carboxamide] | 738 | 174 | –
O=S(=O)(Nc1cc2ocnc2c(F)c1Nc1ccc(I)cc1F)C1CC1 [Compound 5, N-(4-fluoro-5-((2-fluoro-4-iodophenyl)amino)benzo[d]oxazol-6-yl)cyclopropanesulfonamide] | 81.6 | 125 | –
O=S(=O)(Nc1cc2scnc2c(F)c1Nc1ccc(I)cc1F)C1CC1 [Compound 13, N-(4-fluoro-5-((2-fluoro-4-iodophenyl)amino)benzo[d]thiazol-6-yl)cyclopropanesulfonamide] | 98.3 | 207 | –
O=S(=O)(Nc1cc2scnc2c(F)c1Nc1ccc(I)cc1F)C1(CC(O)CO)CC1 (centres unmarked) [Compound 14, 1-(2,3-dihydroxypropyl)-N-(4-fluoro-5-((2-fluoro-4-iodophenyl)amino)benzo[d]thiazol-6-yl)cyclopropane-1-sulfonamide] | 201 | 119 | –
O=C(NOCCO)c1cc2scnc2c(F)c1Nc1ccc(Br)cc1F [Compound 34, 4-fluoro-5-((2-fluoro-4-bromophenyl)amino)-N-(2-hydroxyethoxy)benzo[d]thiazol-6-carboxamide] | – | – | inhibition at 0.1 µM (TNF-α): ≤ 40%; inhibition at 0.1 µM (Interleukin-4 (IL-4)): ≤ 50%
O=S(=O)(Nc1cc2snnc2c(F)c1Nc1ccc(Br)cc1Cl)C1CC1 [Compound 23, N-(5-((4-bromo-2-chlorophenyl)amino)-4-fluorobenzo[d][1,2,3]thiadiazol-6-yl)cyclopropanesulfonamide] | 3640 | 562 | –
O=C(NOCC(O)CO)c1cc2scnc2c(F)c1Nc1ccc(I)cc1F (centres unmarked) [Compound 10, N-(2,3-dihydroxypropoxy)-4-fluoro-5-((2-fluoro-4-iodophenyl)amino)benzo[d]thiazole-6-carboxamide] | 18.5 | 11.2 | –
O=C(NOCCO)c1cc2ocnc2c(F)c1Nc1ccc(Br)cc1F [Compound 25, 4-fluoro-5-((2-fluoro-4-bromophenyl)amino)-N-(2-hydroxyethoxy)benzo[d]oxazole-6-carboxamide] | – | – | inhibition at 0.1 µM (TNF-α): ≤ 40%; inhibition at 0.1 µM (Interleukin-4 (IL-4)): ≤ 50%
O=C(NOCCO)c1cc2ocnc2c(F)c1Nc1ccc(I)cc1F [Compound 1, 4-fluoro-5-((2-fluoro-4-iodophenyl)amino)-N-(2-hydroxyethoxy)benzo[d]oxazole-6-carboxamide] | 2.3 | 0.85 | Tumor growth inhibition (TGI) [1]: 55.1%; inhibition at 0.1 µM (TNF-α): ≤ 40%; Tumor growth inhibition vs vehicle control group (COLO 205 tumor xenograft; [2]): 91.22%; inhibition at 0.1 µM (Interleukin-4 (IL-4)): ≤ 50%
O=S(=O)(Nc1cc2snnc2c(F)c1Nc1ccc(Br)cc1Cl)C1(CC(O)CO)CC1 (centres unmarked) [Compound 24, N-(5-((4-bromo-2-chlorophenyl)amino)-4-fluorobenzo[d][1,2,3]thiadiazol-6-yl)-1-(2,3-dihydroxypropyl)cyclopropane-1-sulfonamide] | 4370 | 992 | –
O=C(NOCC(O)CO)c1cc2snnc2c(F)c1Nc1ccc(Br)cc1Cl (centres unmarked) [Compound 20, 5-((4-bromo-2-chlorophenyl)amino)-N-(2,3-dihydroxypropoxy)-4-fluorobenzo[d][1,2,3]thiadiazole-6-carboxamide] | 687 | 97.3 | –
O=S(=O)(Nc1cc2snnc2c(F)c1Nc1ccc(I)cc1F)C1CC1 [Compound 21, N-(4-fluoro-5-((2-fluoro-4-iodophenyl)amino)benzo[d][1,2,3]thiadiazol-6-yl)cyclopropanesulfonamide] | 1080 | 1770 | –
O=C(NOCCO)c1cc2snnc2c(F)c1Nc1ccc(Br)cc1F [Compound 43, 5-((4-bromo-2-fluorophenyl)amino)-4-fluoro-N-(2-hydroxyethoxy)benzo[d][1,2,3]thiadiazole-6-carboxamide] | – | – | inhibition at 0.1 µM (TNF-α): ≤ 40%; inhibition at 0.1 µM (Interleukin-4 (IL-4)): ≤ 50%
O=C(NOCCO)c1cc2snnc2c(F)c1Nc1ccc(I)cc1F [Compound 17, 4-fluoro-5-((2-fluoro-4-iodophenyl)amino)-N-(2-hydroxyethoxy)benzo[d][1,2,3]thiadiazole-6-carboxamide] | 1 | 0.24 | Tumor growth inhibition (TGI) [1]: 88.75%; inhibition at 0.1 µM (TNF-α): ≤ 40%; Tumor growth inhibition vs vehicle control group (COLO 205 tumor xenograft; 5 mg/kg QD by gavage x 18 days): 95.35%; inhibition at 0.1 µM (Interleukin-4 (IL-4)): ≤ 50%
O=C(NOCCO)c1cc2ocnc2c(F)c1Nc1ccc(Br)cc1Cl [Compound 3, 5-((4-bromo-2-chlorophenyl)amino)-4-fluoro-N-(2-hydroxyethoxy)benzo[d]oxazole-6-carboxamide] | 51.8 | 61.3 | Tumor growth inhibition (TGI) [1]: 32.3%; inhibition at 0.1 µM (TNF-α): ≤ 40%; Tumor growth inhibition vs vehicle control group (COLO 205 tumor xenograft; 20 mg/kg QD by gavage x 18 days): 47.11%; inhibition at 0.1 µM (Interleukin-4 (IL-4)): ≤ 50%
O=C(NOCC(O)CO)c1cc2ocnc2c(F)c1Nc1ccc(Br)cc1Cl (centres unmarked) [Compound 4, 5-((4-bromo-2-chlorophenyl)amino)-N-(2,3-dihydroxypropoxy)-4-fluorobenzo[d]oxazole-6-carboxamide] | 138 | 97.5 | –
O=S(=O)(Nc1cc2ocnc2c(F)c1Nc1ccc(I)cc1F)C1(CC(O)CO)CC1 (centres unmarked) [Compound 6, 1-(2,3-dihydroxypropyl)-N-(4-fluoro-5-((2-fluoro-4-iodophenyl)amino)benzo[d]oxazol-6-yl)cyclopropane-1-sulfonamide] | 78.3 | 103 | –
O=S(=O)(Nc1cc2ocnc2c(F)c1Nc1ccc(Br)cc1Cl)C1(CC(O)CO)CC1 (centres unmarked) [Compound 8, N-(5-((4-bromo-2-chlorophenyl)amino)-4-fluorobenzo[d]oxazol-6-yl)-1-(2,3-dihydroxypropyl)cyclopropane-1-sulfonamide] | 1090 | 738 | –
O=C(NOCCO)c1cc2scnc2c(F)c1Nc1ccc(Br)cc1Cl [Compound 11, 5-((4-bromo-2-chlorophenyl)amino)-4-fluoro-N-(2-hydroxyethoxy)benzo[d]thiazole-6-carboxamide] | 51.2 | 61.4 | Tumor growth inhibition (TGI) [1]: 68.51%; inhibition at 0.1 µM (TNF-α): ≤ 40%; Tumor growth inhibition vs vehicle control group (COLO 205 tumor xenograft; [2]): 82.14%; inhibition at 0.1 µM (Interleukin-4 (IL-4)): ≤ 50%
O=C(NOCC(O)CO)c1cc2snnc2c(F)c1Nc1ccc(I)cc1F (centres unmarked) [Compound 18, N-(2,3-dihydroxypropoxy)-4-fluoro-5-((2-fluoro-4-iodophenyl)amino)benzo[d][1,2,3]thiadiazole-6-carboxamide] | 66.4 | 16.8 | –
O=C(NOCC(O)CO)c1cc2ocnc2c(F)c1Nc1ccc(I)cc1F (centres unmarked) [Compound 2, N-(2,3-dihydroxypropoxy)-4-fluoro-5-((2-fluoro-4-iodophenyl)amino)benzo[d]oxazole-6-carboxamide] | 8.1 | 4.6 | –
O=C(NOCCO)c1cc2snnc2c(F)c1Nc1ccc(Br)cc1Cl [Compound 19, 5-((4-bromo-2-chlorophenyl)amino)-4-fluoro-N-(2-hydroxyethoxy)benzo[d][1,2,3]thiadiazole-6-carboxamide] | 65.7 | 49.4 | Tumor growth inhibition (TGI) [1]: 50.9%; inhibition at 0.1 µM (TNF-α): ≤ 40%; Tumor growth inhibition vs vehicle control group (COLO 205 tumor xenograft; [2]): 86.22%; inhibition at 0.1 µM (Interleukin-4 (IL-4)): ≤ 50%
O=S(=O)(Nc1cc2scnc2c(F)c1Nc1ccc(Br)cc1Cl)C1(CC(O)CO)CC1 (centres unmarked) [Compound 16, N-(5-((4-bromo-2-chlorophenyl)amino)-4-fluorobenzo[d]thiazol-6-yl)-1-(2,3-dihydroxypropyl)cyclopropane-1-sulfonamide] | 1310 | 151 | –
O=S(=O)(Nc1cc2ocnc2c(F)c1Nc1ccc(Br)cc1Cl)C1CC1 [Compound 7, N-(5-((4-bromo-2-chlorophenyl)amino)-4-fluorobenzo[d]oxazol-6-yl)cyclopropanesulfonamide] | 283 | 239 | –
O=S(=O)(Nc1cc2snnc2c(F)c1Nc1ccc(I)cc1F)C1(CC(O)CO)CC1 (centres unmarked) [Compound 22, 1-(2,3-dihydroxypropyl)-N-(4-fluoro-5-((2-fluoro-4-iodophenyl)amino)benzo[d][1,2,3]thiadiazol-6-yl)cyclopropane-1-sulfonamide] | 2620 | 1160 | –
Cn1cnc2c(F)c(Nc3ccc(Br)cc3Cl)c(C(=O)NOCCO)cc21 [Reference compound 1, reference compound] | – | – | Tumor growth inhibition vs vehicle control group (COLO 205 tumor xenograft; [2]): 72.80%
Cn1cnc2c(F)c(Nc3ccc(Br)cc3Cl)c(C(=O)NOCCO)cc21 [AZD6244, reference compound] | – | – | Tumor growth inhibition (TGI) [1]: 48.3%
O=S(=O)(Nc1cc2scnc2c(F)c1Nc1ccc(Br)cc1Cl)C1CC1 [Compound 15, N-(5-((4-bromo-2-chlorophenyl)amino)-4-fluorobenzo[d]thiazol-6-yl)cyclopropanesulfonamide] | 184 | 99.8 | –
